In the experiment the test system is Pseudomonas putida biofilms. Description: Biofilm eradication (MBEC) test: viable plate counts of biofilms on stainless steel 316 coupons from a CDC Biofilm reactor after two hours of treatment. Format: cell-based. Particulars: 20 mg/L MCA alone, viable biofilm population vs untreated control, 2 h, 28° C.

Molecules are shown by their SMILES.

Description: In this work the efficacy of the agents alone and in combination were determined by measuring the number of viable cells in model biofilms remaining after treatment. The Minimum Biofilm Eradication value (MBEC) is defined as a 95% reduction in the number of viable cells compared to the untreated control.
Dose response studies were performed to determine the Minimum Biofilm Eradication Concentration (MBEC) for monochloramine and PEI alone. The MBEC is defined as the concentration of agent that reduces the viable biofilm population by 95% of the untreated control value as measured by viable plate counts. Experiments were then performed to determine the result of combining the two agents, oxidizing biocide monochloramine and dispersant PEI alone, on biofilm populations. The experiments examined three concentrations of monochloramine with four concentrations of PEI alone.
M9YG media is a simple minimal salt medium supplemented with 500 mg/L glucose and 0.01% yeast extract. The salts composition was intended to mimic a typical cooling tower water composition. […]
Briefly, biofilms were grown on stainless steel 316 coupons in a CDC Biofilm reactor using M9YG minimal salts growth media for a period of twenty-four hours. […] Viable cells released into the fluid were then determined by a plating method.

On to `NCl` [MCA, monochloramine], for which the “% reduction” value came out at 93.58%. Besides, the “% reduction” value (listed as monochloramine) was “greater than 90%”.

Values taken from patent US11104593B2, “Compositions exhibiting synergy in biofilm control” (SOLENIS TECHNOLOGIES, L.P., priority 2017, dated 2021).
